One molecule from ChEMBL document CHEMBL5104192, “Late-Stage Functionalization with Cysteine Staples Generates Potent and Selective Melanocortin Receptor-1 Agonists” (J Med Chem, 2022) can be followed below.

The species named for assay [1] is Homo sapiens. In words: Selectivity ratio of Ki for human MC3R to Ki for human MC1R.
The target of assay [2] is T1, Melanocortin receptor 4 (Homo sapiens, UniProt P32245). In words: Displacement of [125I]-NDP-alpha-MSH from human MC4R expressed in HEK2936E cell membrane measured after 16 to 23 hrs by 1450 microbeta trilux scintillation proximity assay. In kind it is cell membranes. Conditions: hek2936e.
T1 sequence (P32245 whole entry): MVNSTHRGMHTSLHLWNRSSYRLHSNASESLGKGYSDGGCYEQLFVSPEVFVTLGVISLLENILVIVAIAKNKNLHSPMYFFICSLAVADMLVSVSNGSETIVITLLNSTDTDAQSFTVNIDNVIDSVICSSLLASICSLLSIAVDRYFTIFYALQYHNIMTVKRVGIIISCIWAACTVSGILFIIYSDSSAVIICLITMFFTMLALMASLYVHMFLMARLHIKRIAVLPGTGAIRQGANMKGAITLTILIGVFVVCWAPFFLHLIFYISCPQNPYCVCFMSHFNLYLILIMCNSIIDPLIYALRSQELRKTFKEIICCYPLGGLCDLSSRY
Assay [3] is filed under the species Homo sapiens. In words: Selectivity ratio of EC50 for human MC4R to EC50 for human MC1R.
The next assay deals with Melanocortin receptor 5 (Homo sapiens, UniProt P33032). In words: Agonist activity at human MC5R expressed in HEK2936E cells assessed as cAMP production in presence of IBMX by time resolved fluorescence assay. It counts as functional, cell-based.
Chain of Melanocortin receptor 5 (P33032 whole entry): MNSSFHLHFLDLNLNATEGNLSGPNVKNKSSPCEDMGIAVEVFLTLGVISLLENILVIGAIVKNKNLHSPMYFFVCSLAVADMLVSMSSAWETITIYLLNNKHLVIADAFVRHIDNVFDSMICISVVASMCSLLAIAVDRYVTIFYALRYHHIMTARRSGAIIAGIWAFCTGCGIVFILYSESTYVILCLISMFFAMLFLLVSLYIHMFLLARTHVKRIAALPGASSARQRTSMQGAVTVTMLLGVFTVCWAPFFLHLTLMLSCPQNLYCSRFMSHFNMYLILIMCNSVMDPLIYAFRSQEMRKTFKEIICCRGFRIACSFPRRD
For assay [4], the target named is T2, Melanocyte-stimulating hormone receptor (Homo sapiens, UniProt Q01726). In words: Agonist activity at human MC1R expressed in HEK2936E cells assessed as cAMP production in presence of IBMX by time resolved fluorescence assay. It counts as functional, cell-based. The following applies: hek2936e. (Changes in cAMP serve as a functional read-out for many G protein-coupled receptors.)
T2 sequence (Q01726 whole entry): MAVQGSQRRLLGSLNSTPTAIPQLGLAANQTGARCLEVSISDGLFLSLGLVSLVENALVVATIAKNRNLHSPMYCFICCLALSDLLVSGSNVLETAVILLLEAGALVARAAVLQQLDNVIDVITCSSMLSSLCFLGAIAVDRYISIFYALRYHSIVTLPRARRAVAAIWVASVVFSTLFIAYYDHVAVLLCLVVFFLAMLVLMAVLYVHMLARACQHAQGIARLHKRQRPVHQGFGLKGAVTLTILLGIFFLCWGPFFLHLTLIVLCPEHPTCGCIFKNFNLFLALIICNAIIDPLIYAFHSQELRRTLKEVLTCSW

The target in assay [5] is T3, Melanocortin receptor 3 (Homo sapiens, UniProt P41968). In words: Displacement of [125I]-NDP-alpha-MSH from human MC3R expressed in HEK2936E cell membrane measured after 16 to 23 hrs by 1450 microbeta trilux scintillation proximity assay. It counts as cell membranes. Conditions: hek2936e. In general terms: Displacement assays read how much labelled ligand stays bound in the presence of the test substance.
T3 sequence (P41968 whole entry): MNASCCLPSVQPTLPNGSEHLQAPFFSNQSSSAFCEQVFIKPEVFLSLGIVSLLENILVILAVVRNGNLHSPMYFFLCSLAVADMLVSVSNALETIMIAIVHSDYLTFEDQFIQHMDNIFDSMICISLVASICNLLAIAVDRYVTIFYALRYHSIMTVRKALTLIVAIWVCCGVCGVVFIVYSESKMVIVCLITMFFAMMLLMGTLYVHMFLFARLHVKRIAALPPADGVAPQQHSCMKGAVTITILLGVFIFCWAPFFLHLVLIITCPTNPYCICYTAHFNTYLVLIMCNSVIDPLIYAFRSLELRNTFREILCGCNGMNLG

The target of assay [6] is T2, Melanocyte-stimulating hormone receptor. In words: Displacement of [125I]-NDP-alpha-MSH from human MC1R expressed in HEK2936E cell membrane measured after 16 to 23 hrs by 1450 microbeta trilux scintillation proximity assay. It counts as cell membranes. Conditions: hek2936e.
In assay [7] the target is T3, Melanocortin receptor 3. In words: Agonist activity at human MC3R expressed in HEK2936E cells assessed as cAMP production in presence of IBMX by time resolved fluorescence assay. It counts as functional, cell-based. The following applies: hek2936e.
In assay [8] the target is T1, Melanocortin receptor 4. In words: Agonist activity at human MC4R expressed in HEK2936E cells assessed as cAMP production in presence of IBMX by time resolved fluorescence assay. In kind it is functional, cell-based. The following applies: hek2936e.
For assay [9], the species on record is Homo sapiens. In words: Selectivity ratio of EC50 for human MC3R to EC50 for human MC1R.
The species entered for assay [10] is Homo sapiens. In words: Selectivity ratio of Ki for human MC4R to Ki for human MC1R.

With `CC[C@H](C)[C@@H]1NC(=O)[C@@H]2CCCN2C(=O)[C@H](Cc2c[nH]c3ccccc23)NC(=O)[C@H](CCCNC(=N)N)N(C)C(=O)[C@H](Cc2ccccc2)NC(=O)[C@H](Cc2cnc[nH]2)NC(=O)[C@H]([C@@H](C)O)NC(=O)[C@H](NC(C)=O)CCSCc2cccc(c2)CSCC[C@H](C(N)=O)NC1=O`, the Ratio Ki in the assay filed under Homo sapiens [1] stood at 170; in the assay filed under Homo sapiens [10], 9. The values for the pKi (on Melanocortin receptor 4 [2]; on Melanocortin receptor 3 [5]; in [6]) were 6.34, 5.08 and 7.31, respectively. The Ratio EC50 in the assay filed under Homo sapiens [3] was found to be 110; in the assay filed under Homo sapiens [9] it was 219. Also, the pEC50 was determined as 4.78 at Melanocortin receptor 5, 8.79 in assay [4], 6.42 on Melanocortin receptor 3 [7] and 6.72 at Melanocortin receptor 4 [8].

In general, pKi refers to −log10 of the Ki, conventionally taken in molar units. A high value points to a small Ki. As usually defined, the pEC50 is the EC50 on a negative log10 scale, so that one unit is a factor of ten.
